Results published in the NIST ThermoML archive (doi:10.1021/je2009413).

Key:
[1] = mean ionic activity coefficient (dimensionless); mn = molality of the nth substance listed, in mol/kg; conditions: 298.15 K, Liquid, Isopiestic method
[2] = osmotic coefficient (dimensionless); mn = molality of the nth substance listed, in mol/kg; conditions: 298.15 K, Liquid, isopiestic method

CCC(C)[N+](CC)(CC)CC.[I-] (configuration not stated) [N,N,N-triethyl-2-butanaminium iodide] + O
Conditions | mean ionic activity coefficient, [1] | osmotic coefficient, [2]
m1 = 0.0355 | 0.7342 | 0.868
m1 = 0.0419 | 0.7111 | 0.857
m1 = 0.0466 | 0.6955 | 0.849
m1 = 0.0596 | 0.6571 | 0.833
m1 = 0.0659 | 0.6405 | 0.827
m1 = 0.0701 | 0.6301 | 0.82
m1 = 0.078 | 0.6116 | 0.814
m1 = 0.0914 | 0.5833 | 0.801
m1 = 0.0985 | 0.5696 | 0.794
m1 = 0.1038 | 0.5599 | 0.79
m1 = 0.1115 | 0.5465 | 0.784
m1 = 0.1743 | 0.4605 | 0.728
m1 = 0.1756 | 0.459 | 0.728
m1 = 0.2078 | 0.4262 | 0.704
m1 = 0.2438 | 0.3955 | 0.676
m1 = 0.248 | 0.3922 | 0.673
m1 = 0.2939 | 0.3602 | 0.651
m1 = 0.338 | 0.3347 | 0.621
m1 = 0.3717 | 0.3178 | 0.616
m1 = 0.3901 | 0.3094 | 0.602
m1 = 0.431 | 0.2924 | 0.578
m1 = 0.4744 | 0.2766 | 0.57
m1 = 0.5204 | 0.2619 | 0.554
m1 = 0.5785 | 0.2458 | 0.538
m1 = 0.624 | 0.2347 | 0.525
m1 = 0.665 | 0.2257 | 0.52
m1 = 0.6928 | 0.22 | 0.508
m1 = 0.8 | 0.2011 | 0.49
m1 = 0.847 | 0.194 | 0.486
m1 = 0.9185 | 0.1842 | 0.48
m1 = 0.978 | 0.177 | 0.468
m1 = 1.091 | 0.1651 | 0.456
m1 = 1.19 | 0.1562 | 0.445
m1 = 1.306 | 0.1471 | 0.433
m1 = 1.407 | 0.1402 | 0.427
m1 = 1.545 | 0.132 | 0.413
m1 = 1.715 | 0.1234 | 0.411
m1 = 1.891 | 0.1159 | 0.407
m1 = 1.928 | 0.1144 | 0.412
m1 = 1.988 | 0.1122 | 0.407
m1 = 2.019 | 0.111 | 0.408
m1 = 2.09 | 0.1086 | 0.417
m1 = 2.172 | 0.1059 | 0.413
m1 = 2.413 | 0.0987 | 0.43

CC[N+](CC)(CC)CC(C)C.[I-] [N,N,N-triethyl-2-methyl-1-propanaminium iodide] + O
Conditions | mean ionic activity coefficient, [1] | osmotic coefficient, [2]
m1 = 0.0366 | 0.7118 | 0.841
m1 = 0.0433 | 0.6866 | 0.828
m1 = 0.0483 | 0.6687 | 0.819
m1 = 0.0624 | 0.6257 | 0.795
m1 = 0.0695 | 0.6067 | 0.784
m1 = 0.0739 | 0.5963 | 0.778
m1 = 0.0824 | 0.5764 | 0.769
m1 = 0.0975 | 0.5439 | 0.751
m1 = 0.1055 | 0.5296 | 0.741
m1 = 0.1113 | 0.5191 | 0.736
m1 = 0.12 | 0.5042 | 0.729
m1 = 0.1872 | 0.4149 | 0.678
m1 = 0.1889 | 0.4131 | 0.677
m1 = 0.2234 | 0.3799 | 0.655
m1 = 0.2618 | 0.3493 | 0.63
m1 = 0.265 | 0.347 | 0.63
m1 = 0.3183 | 0.3131 | 0.601
m1 = 0.3626 | 0.2901 | 0.579
m1 = 0.4063 | 0.2708 | 0.563
m1 = 0.4229 | 0.2643 | 0.555
m1 = 0.4602 | 0.2508 | 0.541
m1 = 0.5128 | 0.2343 | 0.527
m1 = 0.5607 | 0.2214 | 0.514
m1 = 0.6289 | 0.2056 | 0.495
m1 = 0.6797 | 0.1956 | 0.482
m1 = 0.737 | 0.1857 | 0.469
m1 = 0.749 | 0.1837 | 0.47
m1 = 0.8695 | 0.1669 | 0.451
m1 = 0.9418 | 0.1587 | 0.437
m1 = 1.034 | 0.1496 | 0.426
m1 = 1.1 | 0.144 | 0.416
m1 = 1.232 | 0.1343 | 0.404
m1 = 1.352 | 0.1271 | 0.392
m1 = 1.465 | 0.1213 | 0.386
m1 = 1.595 | 0.1156 | 0.377
m1 = 1.703 | 0.1115 | 0.375
m1 = 1.891 | 0.1055 | 0.373
m1 = 2.044 | 0.1013 | 0.377
m1 = 2.096 | 0.0994 | 0.379
m1 = 2.142 | 0.0984 | 0.378
m1 = 2.163 | 0.0981 | 0.381
m1 = 2.254 | 0.0955 | 0.387
m1 = 2.308 | 0.0941 | 0.389
m1 = 2.528 | 0.0917 | 0.41

CC[N+](CC)(CC)C(C)(C)C [N,N,N-triethyl-2-methyl-2-propanaminium] + O
Conditions | mean ionic activity coefficient, [1] | osmotic coefficient, [2]
m1 = 0.0342 | 0.7642 | 0.899
m1 = 0.0403 | 0.7444 | 0.891
m1 = 0.0449 | 0.7306 | 0.88
m1 = 0.0576 | 0.6966 | 0.862
m1 = 0.0639 | 0.6816 | 0.853
m1 = 0.0679 | 0.6725 | 0.847
m1 = 0.0754 | 0.6564 | 0.841
m1 = 0.088 | 0.6318 | 0.832
m1 = 0.0953 | 0.6187 | 0.82
m1 = 0.0994 | 0.6116 | 0.824
m1 = 0.1082 | 0.5972 | 0.808
m1 = 0.1645 | 0.5222 | 0.771
m1 = 0.1658 | 0.5208 | 0.771
m1 = 0.195 | 0.4905 | 0.75
m1 = 0.2257 | 0.4629 | 0.731
m1 = 0.2308 | 0.4586 | 0.723
m1 = 0.271 | 0.4282 | 0.706
m1 = 0.3095 | 0.4031 | 0.678
m1 = 0.3407 | 0.3851 | 0.671
m1 = 0.3517 | 0.3792 | 0.668
m1 = 0.383 | 0.3635 | 0.651
m1 = 0.4265 | 0.3439 | 0.634
m1 = 0.4648 | 0.3286 | 0.62
m1 = 0.5151 | 0.3106 | 0.604
m1 = 0.553 | 0.2985 | 0.592
m1 = 0.5917 | 0.2871 | 0.584
m1 = 0.61 | 0.2821 | 0.577
m1 = 0.7078 | 0.2583 | 0.554
m1 = 0.7607 | 0.2473 | 0.541
m1 = 0.8399 | 0.2327 | 0.524
m1 = 0.8805 | 0.2259 | 0.52
m1 = 0.9759 | 0.2118 | 0.509
m1 = 1.08 | 0.1986 | 0.49
m1 = 1.162 | 0.1896 | 0.487
m1 = 1.272 | 0.1791 | 0.473
m1 = 1.391 | 0.1693 | 0.459
m1 = 1.56 | 0.1579 | 0.452
m1 = 1.693 | 0.1504 | 0.455
m1 = 1.771 | 0.1466 | 0.449
m1 = 1.786 | 0.1459 | 0.454
m1 = 1.83 | 0.144 | 0.45
m1 = 1.924 | 0.1401 | 0.453
m1 = 1.99 | 0.1377 | 0.451
m1 = 2.231 | 0.1303 | 0.465

CCCC[N+](CC)(CCCC)CCCC.[I-] [N,N-dibutyl-N-ethyl-1-butanaminium iodide] + O
Conditions | mean ionic activity coefficient, [1] | osmotic coefficient, [2]
m1 = 0.0378 | 0.6891 | 0.814
m1 = 0.0449 | 0.6605 | 0.799
m1 = 0.0501 | 0.6414 | 0.789
m1 = 0.0653 | 0.5922 | 0.761
m1 = 0.0727 | 0.5712 | 0.749
m1 = 0.0776 | 0.5582 | 0.741
m1 = 0.0868 | 0.5355 | 0.731
m1 = 0.1035 | 0.499 | 0.707
m1 = 0.1121 | 0.4824 | 0.698
m1 = 0.1191 | 0.4695 | 0.688
m1 = 0.1288 | 0.4528 | 0.679
m1 = 0.2082 | 0.3515 | 0.614
m1 = 0.2083 | 0.3515 | 0.609
m1 = 0.2503 | 0.3142 | 0.584
m1 = 0.292 | 0.2842 | 0.565
m1 = 0.3027 | 0.2774 | 0.551
m1 = 0.3652 | 0.2431 | 0.524
m1 = 0.4254 | 0.217 | 0.493
m1 = 0.4783 | 0.1981 | 0.478
m1 = 0.498 | 0.1919 | 0.471
m1 = 0.547 | 0.1778 | 0.456
m1 = 0.6197 | 0.1601 | 0.436
m1 = 0.6878 | 0.1461 | 0.419
m1 = 0.7684 | 0.1322 | 0.405
m1 = 0.8453 | 0.1209 | 0.388
m1 = 0.908 | 0.1127 | 0.381
m1 = 0.9478 | 0.108 | 0.371
m1 = 1.128 | 0.09 | 0.347
m1 = 1.231 | 0.0816 | 0.335
m1 = 1.337 | 0.0739 | 0.33
m1 = 1.405 | 0.0695 | 0.326
m1 = 1.548 | 0.0611 | 0.321
m1 = 1.652 | 0.0557 | 0.321
m1 = 1.751 | 0.051 | 0.323
m1 = 1.825 | 0.0478 | 0.33
m1 = 1.91 | 0.0443 | 0.334
m1 = 2.042 | 0.0393 | 0.345
m1 = 2.173 | 0.0349 | 0.354
m1 = 2.216 | 0.0335 | 0.359
m1 = 2.239 | 0.0328 | 0.362
m1 = 2.276 | 0.0317 | 0.362
m1 = 2.339 | 0.0299 | 0.372
m1 = 2.38 | 0.0288 | 0.377
m1 = 2.583 | 0.0236 | 0.402
